Data reported in patent US12679839B2, “Cyclin-dependent kinase 7 (CDK7) non-covalent inhibitors” (JANSSEN PHARMACEUTICA NV, priority 2020, dated 2026).

Experiments:
[1] = tested on: RNA polymerase II Serine 5 phosphorylation (Rpb1 CTD), downstream substrate of CDK7; test: Imaging-based cellular RNA PolII Ser5 phosphorylation assay in A549 cells; format: cell-based, human; conditions: challenged with compound for 3 hours; for IC50: Homo sapiens, A549, 3 h, read-out: pRNA polII Ser5 (A549) pIC50 (converted)
Summary of the method: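 A549 cells seeded 20 h in DMEM with 1% FBS, then exposed to compound for 3 h at 37 °C; fixed, methanol-permeabilized and immunostained for phospho-Rpb1 CTD Ser5, read by automated imaging. Signal normalized to DMSO (high) and 10 μM LDC4297 (low) controls; IC50 from four-parameter fit of % control vs concentration.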

[2] = molecular target: T1, CDK7/Cyclin H/MAT-1 complex (Homo sapiens, UniProt P50613); test: Absorbance kinetic assay (20 nM CDK7/Cyclin H/MAT-1 complex); format: biochemical; conditions: for IC50: read-out: CDK7 (20 nM) pIC50 (converted)
T1 construct: Human CDK7 (amino acids 1-346); His6 (N); TEV protease cleavage site (N); made in house; host or cells: baculovirus-SF9 insect cells
Protocol: Human CDK7 (amino acids 1-346) containing an N-terminal His6-tag followed by a tobacco etch virus (TEV) protease cleavage site, human MAT1 (amino acids 1-309) and human cyclin H (amino acids 1-323) were co-expressed in the baculovirus-SF9 insect cell expression system to generate a trimeric complex. Cell pellets were collected 72 h post-infection and were resuspended by Dounce homogenization in 20 mM Hepes-NaOH (pH 8.0), 300 mM NaCl, 10% glycerol, 2 mM dithiothreitol DTT), and 20 mM Imidazole supplemented with cOmplete™ Protease Inhibitor Cocktail (Roche) and 25 U/mL Benzonase® Nuclease HC according to the manufacturer's instructions. Cells were lysed by passing through a Microfluidics M110Y Microfluidizer 3 times at 600 kPa followed by centrifugation at 38,000×g at 4° C. for 1 hour. The supernatant was loaded onto a pre-equilibrated HisTrap HP column and eluted in 20 mM Hepes-NaOH (pH 8.0), 50 mM NaCl, 10% glycerol, 2 mM DTT, and 400 mM Imidazole. The eluate was further purified by gel filtration on a Superdex S200 16/60 column and eluted with 20 mM Hepes-NaOH (pH 7.5), 50 mM NaCl, 10% Glycerol, 2 mM DTT. Fractions containing a trimeric complex of CDK7, cyclin H, and MAT1 in a 1:1:1 ratio were pooled and concentrated to 3 mg/mL in a 10 kDa MWCO concentrator, and diluted to a final concentration of 1.6 mg/mL in 11.1 mM Hepes-NaOH (pH 8.0), 27.8 mM NaCl, 1.1 mM DTT and 50% glycerol. […]
Absorbance Kinetic Assay (20 nM CDK7/Cyclin H/MAT-1 Complex)
CDK7 complex catalyzes the ATP-dependent phosphorylation of a peptide substrate CDK7/9-tide that is derived from RNA Pol II to produce phosphorylated peptide and ADP. The kinase reaction product ADP was converted to lactate and NAD^+ in the presence of phosphoenol pyruvate (PEP), NADH and coupling enzymes lactate dehydrogenase (LDH) and pyruvate kinase (PK). CDK7 complex catalytic activity was measured by following the absorbance intensity continuously at 340 nm that corresponds with the depletion of NADH.
Absorbance at 340 nm was followed kinetically at an interval of 2 minutes for 8 hours.
The assay was carried out with 100 μl reaction volume per well in a 384-well plate that was pre-spotted nanoliter volume of compounds by LabCyte Echo 555. Compound dilution plates were made by 2-fold (could vary upon necessity) dilution in DMSO for 11 concentrations plus a DMSO control of uninhibited reaction. 2× substrate and coupling reagent mixture was added to the assay plate followed by an addition of an equal volume of 40 nM CDK7/Cyclin H/MAT-1 complex. After mixing, assay plates were spun at 2000 rpm for 3 minutes and then transferred to the plate reader for data collection.
For reversible inhibitors, the absorbance reaction progress curves were linear. The steady-state rate was derived from the slope of the linear curves. The following equation is applied to determine percent inhibition.
[formula] • νo=max rate (uninhibited rate) • νi=inhibited rate
The IC50 value is calculated by the following equation:
[formula] where νo is the rate in the absence of inhibitor, νmin is the rate at highest inhibitor concentration, and h is the Hill coefficient. Flint Assay (5 nM CDK7/Cyclin H/MAT-1 Complex)

T1 sequence (P50613 whole entry, the tested form may be a part): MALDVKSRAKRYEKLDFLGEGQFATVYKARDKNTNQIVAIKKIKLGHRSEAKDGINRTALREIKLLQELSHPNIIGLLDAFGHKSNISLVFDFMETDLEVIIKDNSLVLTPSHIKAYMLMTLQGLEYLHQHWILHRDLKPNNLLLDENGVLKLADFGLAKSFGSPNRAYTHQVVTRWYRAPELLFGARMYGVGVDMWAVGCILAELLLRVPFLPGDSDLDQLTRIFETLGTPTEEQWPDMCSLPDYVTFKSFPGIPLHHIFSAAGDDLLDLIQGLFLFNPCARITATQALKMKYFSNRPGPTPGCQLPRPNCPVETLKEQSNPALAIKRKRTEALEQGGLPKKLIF
T1 sequence (P51946 whole entry partner, the tested form may be a part): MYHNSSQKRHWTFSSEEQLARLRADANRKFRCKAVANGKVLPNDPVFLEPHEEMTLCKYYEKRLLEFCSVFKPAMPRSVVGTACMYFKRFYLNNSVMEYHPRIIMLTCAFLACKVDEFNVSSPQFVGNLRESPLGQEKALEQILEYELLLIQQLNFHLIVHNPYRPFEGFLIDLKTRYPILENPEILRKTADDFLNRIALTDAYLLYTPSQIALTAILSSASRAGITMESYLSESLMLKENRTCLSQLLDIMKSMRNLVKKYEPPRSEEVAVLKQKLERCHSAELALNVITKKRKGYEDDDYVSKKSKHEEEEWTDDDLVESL
T1 sequence (P51948 whole entry partner, the tested form may be a part): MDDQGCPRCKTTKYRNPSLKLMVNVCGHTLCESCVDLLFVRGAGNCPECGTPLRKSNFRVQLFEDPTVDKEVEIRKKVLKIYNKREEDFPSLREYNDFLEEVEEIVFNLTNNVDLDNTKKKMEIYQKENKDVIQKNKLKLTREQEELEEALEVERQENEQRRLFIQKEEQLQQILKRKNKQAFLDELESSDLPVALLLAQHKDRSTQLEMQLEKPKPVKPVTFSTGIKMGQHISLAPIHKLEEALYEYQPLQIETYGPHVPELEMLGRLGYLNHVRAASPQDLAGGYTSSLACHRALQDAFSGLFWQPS

CC(C)N1CC[C@@H](C(=O)N2Cc3nc(NC4CCOCC4)ncc3C[C@H]2C)[C@H](c2cccc(F)c2)C1 (single isomer, unassigned) [Compound 164]
IC50 [1]: 4070 nM | CDK7 (20 nM) pIC50 [2]: 6.06

C[C@@H]1Cc2cnc(NCc3ccccc3)nc2CN1C(=O)[C@H]1CCN(C)C[C@@H]1C(F)(F)F (relative stereo) [Compound 142]
IC50 [1]: 4170 nM | IC50 [2]: 2950 nM

C[C@@H]1Cc2cnc(NC3CCN(C(=O)C4CC4)CC3)nc2CN1C(=O)[C@H]1CCN(C)C[C@@H]1c1ccccc1 [Compound 33]
IC50 [1]: 162 nM | CDK7 (20 nM) pIC50 [2]: 7.88

C[C@@H]1Cc2cnc(NC3CCOCC3)nc2CN1C(=O)[C@H]1CCN(C)C[C@@H]1c1ccc(F)c(Cl)c1 (relative stereo) [Compound 114]
IC50 [1]: 56.2 nM | IC50 [2]: 11 nM

C[C@@H]1Cc2cnc(NCC(=O)N3CCCCC3)nc2CN1C(=O)[C@H]1CCN(C)C[C@@H]1c1ccccc1 [Compound 28]
IC50 [1]: > 10000 nM | CDK7 (20 nM) pIC50 [2]: 6.59

C[C@H]1c2nc(NC3CCOCC3)ncc2CCN1C(=O)[C@H]1CCN(C)C[C@@H]1c1ccccc1 (relative stereo) [Compound 184]
IC50 [1]: 537 nM | IC50 [2]: 25.7 nM

C[C@@H]1Cc2cnc(NC3CCOCC3)nc2CN1C(=O)[C@H]1CCN(C)C[C@@H]1C1CC1 (relative stereo) [Compound 113]
IC50 [1]: 1740 nM | IC50 [2]: 79.4 nM

CO[C@H]1CC[C@H](Nc2ncc3c(n2)CN(C(=O)[C@H]2CCN(C)C[C@@H]2c2ccnc(C)c2)[C@H](C)C3)CC1 (relative stereo) [Compound 106]
IC50 [1]: > 10000 nM | IC50 [2]: 6030 nM

C[C@@H]1Cc2cnc(NC3CCOCC3)nc2CN1C(=O)[C@@H]1CC[C@H](N(C)C)CN1c1ccccc1 (mixture of isomers) [Compound 168]
IC50 [1]: > 10000 nM | CDK7 (20 nM) pIC50 [2]: 5.87

C[C@@H]1Cc2cnc(NCc3cn(C)cn3)nc2CN1C(=O)[C@H]1CCN(C)C[C@@H]1c1ccccc1 [Compound 63]
IC50 [1]: > 10000 nM | CDK7 (20 nM) pIC50 [2]: 7.38

C[C@@H]1c2nc(NC3CCOCC3)ncc2CCN1C(=O)[C@H]1CCN(C)C[C@@H]1c1ccccc1 (relative stereo) [Compound 183]
IC50 [1]: > 10000 nM | IC50 [2]: > 10000 nM

C[C@@H]1Cc2cnc(NC3CCOCC3)nc2CN1C(=O)[C@@H]1CCN(C)C[C@H]1C1CC1 (relative stereo) [Compound 112]
IC50 [1]: > 10000 nM | IC50 [2]: > 10000 nM

CN1CCN(C(=O)N2Cc3nc(NC4CCOCC4)ncc3CC2(C)C)[C@@H](c2ccccc2)C1 [Compound 205]
IC50 [1]: 513 nM | CDK7 (20 nM) pIC50 [2]: 7.89

Cc1cc(C2CN(C)CCC2C(=O)N2Cc3nc(NC4CCOCC4)ncc3C[C@H]2C)ccn1 (some centres unmarked) [Compound 101]
IC50 [1]: 4470 nM | CDK7 (20 nM) pIC50 [2]: 7.67

C[C@@H]1Cc2cnc(NC3CCOCC3)nc2CN1C(=O)[C@H]1CCN(C)C[C@@H]1c1ccc(F)cc1 (single isomer, unassigned) [Compound 92b]
IC50 [1]: ~67.6 nM | CDK7 (20 nM) pIC50 [2]: 7.92

C[C@@H]1Cc2cnc(NC3CCOCC3)nc2CN1C(=O)[C@@H]1CCN(C)C[C@H]1c1ccc(F)cc1 [Compound 92a]
IC50 [1]: > 10000 nM | CDK7 (20 nM) pIC50 [2]: 5.11

C[C@@H]1Cc2cnc(NCC3CCOCC3)nc2CN1C(=O)[C@H]1CCN(C)C[C@@H]1c1ccccc1 [Compound 36]
IC50 [1]: 2400 nM | CDK7 (20 nM) pIC50 [2]: 7.19

C[C@@H]1Cc2cnc(NC3CCN(S(=O)(=O)C4CC4)CC3)nc2CN1C(=O)[C@H]1CCN(C)C[C@@H]1c1ccccc1 [Compound 41]
IC50 [1]: > 10000 nM | CDK7 (20 nM) pIC50 [2]: 6.18

C[C@@H]1Cc2cnc(N[C@@H]3CCN(C)C(=O)C3)nc2CN1C(=O)[C@H]1CCN(C)C[C@@H]1c1ccccc1 (relative stereo) [Compound 4]
IC50 [1]: ~8130 nM | IC50 [2]: 35.5 nM

CO[C@H]1CC[C@H](Nc2cc3c(cn2)C[C@H](C)N(C(=O)[C@@H]2CCN(C)C[C@H]2c2cccc(C)c2)C3)CC1 [Compound 177b]
pRNA polII Ser5 (A549) pIC50 [1]: ~5.23 | CDK7 (20 nM) pIC50 [2]: <5

C[C@@H]1Cc2cnc(NC3CCC(F)(F)CC3)nc2CN1C(=O)[C@H]1CCN(C)C[C@@H]1c1ccccc1 [Compound 64]
IC50 [1]: 141 nM | CDK7 (20 nM) pIC50 [2]: >8.01

C[C@@H]1Cc2cnc(NC3CCOCC3)nc2CN1C(=O)[C@H]1CCN(C)C[C@@H]1c1ccc(F)cc1 (relative stereo) [Compound 120]
IC50 [1]: ~67.6 nM | IC50 [2]: 12 nM

C[C@H]1CN(C(=O)[C@H]2CCN(C)C[C@@H]2c2ccccc2)Cc2nc(NC3CCOCC3)ncc21 (relative stereo) [Compound 187]
IC50 [1]: > 10000 nM | IC50 [2]: > 10000 nM

CO[C@H]1CC[C@H](Nc2ncc3c(n2)CN(C(=O)[C@@H]2CCN(C)C[C@H]2c2ccc(C)nc2)[C@H](C)C3)CC1 (relative stereo) [Compound 109]
IC50 [1]: > 10000 nM | IC50 [2]: > 10000 nM

C[C@@H]1Cc2cnc(NC3CCOCC3)nc2CN1C(=O)[C@@H]1CCN(C)C[C@H]1C(F)(F)F [Compound 140a]
IC50 [1]: > 10000 nM | CDK7 (20 nM) pIC50 [2]: 5.89

C[C@@H]1Cc2cnc(NCc3ccccn3)nc2CN1C(=O)[C@H]1CCN(C)C[C@@H]1c1ccccc1 [Compound 35]
IC50 [1]: 200 nM | CDK7 (20 nM) pIC50 [2]: 7.78

Cc1ccc([C@H]2CN(C)CC[C@@H]2C(=O)N2Cc3nc(NC4CCOCC4)ncc3C[C@H]2C)cc1 (relative stereo) [Compound 118]
IC50 [1]: 269 nM | IC50 [2]: 11.7 nM

Cc1cccc([C@@H]2CN(C)CC[C@H]2C(=O)N2Cc3nc(Nc4cnn(C)c4)ncc3[C@@H]3C[C@@H]32)c1 (relative stereo) [Compound 202]
IC50 [1]: 6920 nM | IC50 [2]: 2340 nM

C[C@@H]1Cc2cnc(NC3CC(C)(C)OC(C)(C)C3)nc2CN1C(=O)[C@H]1CCN(C)C[C@@H]1c1ccccc1 [Compound 24]
IC50 [1]: 126 nM | CDK7 (20 nM) pIC50 [2]: 7.96

CC[C@@H]1Cc2cnc(NC3CCOCC3)nc2CN1C(=O)[C@H]1CCN(C)C[C@@H]1c1ccccc1 (relative stereo) [Compound 185]
IC50 [1]: 724 nM | IC50 [2]: 42.7 nM

C[C@H](Nc1ncc2c(n1)CN(C(=O)[C@H]1CCN(C)C[C@@H]1c1ccccc1)[C@H](C)C2)c1ccccc1 [Compound 23]
IC50 [1]: 302 nM | CDK7 (20 nM) pIC50 [2]: 7.97

Cc1cccc([C@@H]2CN(C)CC[C@H]2C(=O)N2Cc3nc(NC4CCOCC4)ncc3C[C@H]2C)c1 (relative stereo) [Compound 137]
IC50 [1]: 955 nM | IC50 [2]: 457 nM

C[C@@H]1CN(C(=O)[C@H]2CCN(C)C[C@@H]2c2ccccc2)[C@H](C)c2nc(NC3CCOCC3)ncc21 (relative stereo) [Compound 182]
IC50 [1]: 4270 nM | IC50 [2]: 724 nM

C[C@@H]1Cc2cnc(N[C@H](C)c3ccccn3)nc2CN1C(=O)[C@H]1CCN(C)C[C@@H]1c1ccccc1 [Compound 21]
IC50 [1]: 302 nM | CDK7 (20 nM) pIC50 [2]: 7.97

C[C@@H]1Cc2cnc(NCc3c(F)cccc3F)nc2CN1C(=O)[C@H]1CCN(C)C[C@@H]1c1ccccc1 [Compound 32]
IC50 [1]: 372 nM | CDK7 (20 nM) pIC50 [2]: 7.9

CC(C)N1CC[C@H](C(=O)N2Cc3nc(NC4CCOCC4)ncc3C[C@H]2C)[C@@H](c2cccc(F)c2)C1 (single isomer, unassigned) [Compound 163]
IC50 [1]: 162 nM | CDK7 (20 nM) pIC50 [2]: 6.83

CC(C)N1CC[C@@H](C(=O)N2Cc3nc(NC4CCOCC4)ncc3C[C@H]2C)[C@H](c2ccc(Cl)c(F)c2)C1 (single isomer, unassigned) [Compound 165]
IC50 [1]: 3240 nM | CDK7 (20 nM) pIC50 [2]: 6.10
